In US20130116227A1, “BIARYL AMIDE DERIVATIVE OR PHARMACEUTICALLY ACCEPTABLE SALT THEREOF” (DAINIPPON SUMITOMO PHARMA CO., LTD., priority 2010, published 2013):

How the values were obtained:
normal rat = assay: Antagonism (in vivo antagonist activity) against reduction of Na/K ratios in DOCA induced urine of normal rat; conditions: oral administration 30 minutes before DOCA 0.3 mg/kg s.c., urine collected for 8 hours
Protocol: Antagonism (In Vivo Antagonist Activity) Against Reduction of Na/K Ratios in Deoxycorticosterone Acetate (DOCA) Induced Urine of Normal Rat
A rat was encaged in a metabolism cage and was collected urine for 8 hours. When a test article was orally administered, it was administered in 5 ml/kg of dosage solution amounts using 0.5% methylcellulose as a solvent. DOCA was dissolved in corn oil in 0.3 mg/ml, and was subcutaneously administered in 1 ml/kg (0.3 mg/kg). Administration timing for a test article was 30 minutes before DOCA administration. 20 ml/kg of Solution amounts of saline was orally administered when administering DOCA in order to stabilize urine amounts and to secure enough amounts. Collected urine was analyzed its amounts, and then electrolyte (sodium: Na^+ and potassium: K^+) concentrations in urine were analyzed by an automatic biochemical analyzer (manufactured by JEOL Ltd., JCA-BM1650) to calculate ratios of Na^+ and K^+.

aldosterone receptor = biological target: T1, aldosterone receptor (Rattus norvegicus, UniProt P22199); assay: Binding inhibition test for aldosterone receptor ([3H]aldosterone, rat renal soluble fraction); conditions: [3H]aldosterone 2 nM, rat renal soluble fraction, in the presence of 2 μM RU-486, 4° C. about 18 hours; read-out: MR IC50
T1 construct: centrifuged at 105,000 g for 30 minutes, and then a supernatant was collected as a renal soluble fraction; from tissue; host or cells: rat kidney (adrenalectomized rat), 105,000 g supernatant (cytosol)
T1 sequence (P22199 1-981): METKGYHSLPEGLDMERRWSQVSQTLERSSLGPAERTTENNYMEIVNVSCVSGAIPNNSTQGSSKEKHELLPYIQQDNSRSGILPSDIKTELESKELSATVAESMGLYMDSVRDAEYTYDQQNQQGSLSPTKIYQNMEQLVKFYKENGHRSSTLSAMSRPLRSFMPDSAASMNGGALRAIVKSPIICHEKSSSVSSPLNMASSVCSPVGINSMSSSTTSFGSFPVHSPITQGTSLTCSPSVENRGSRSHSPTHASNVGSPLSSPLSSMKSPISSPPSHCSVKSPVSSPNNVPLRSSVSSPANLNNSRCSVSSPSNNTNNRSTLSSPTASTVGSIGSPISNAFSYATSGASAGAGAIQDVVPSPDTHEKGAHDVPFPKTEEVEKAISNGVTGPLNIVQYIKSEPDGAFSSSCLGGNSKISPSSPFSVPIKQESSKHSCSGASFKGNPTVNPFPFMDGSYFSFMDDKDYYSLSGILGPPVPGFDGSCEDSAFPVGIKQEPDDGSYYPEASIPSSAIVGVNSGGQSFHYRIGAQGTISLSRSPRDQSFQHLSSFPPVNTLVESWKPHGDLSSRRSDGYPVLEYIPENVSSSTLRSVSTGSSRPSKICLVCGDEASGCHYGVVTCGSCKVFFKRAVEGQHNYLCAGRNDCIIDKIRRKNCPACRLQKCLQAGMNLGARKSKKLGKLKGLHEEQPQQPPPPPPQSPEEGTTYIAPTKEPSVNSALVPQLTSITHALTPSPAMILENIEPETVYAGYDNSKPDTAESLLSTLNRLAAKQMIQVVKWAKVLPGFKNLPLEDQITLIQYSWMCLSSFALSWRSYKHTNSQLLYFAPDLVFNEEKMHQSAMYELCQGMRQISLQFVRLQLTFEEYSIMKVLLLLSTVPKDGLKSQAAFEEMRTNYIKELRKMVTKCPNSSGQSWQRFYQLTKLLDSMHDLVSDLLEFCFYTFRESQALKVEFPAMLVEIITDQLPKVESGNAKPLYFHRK
Procedure, shortened: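 Incubation: ~18 h at 4 °C with 2 μM RU-486 to block glucocorticoid receptor, using kidney cytosol from adrenalectomized rats; free ligand removed with dextran-charcoal before scintillation counting.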

Row | IC50 (aldosterone receptor) | SMILES | suppression of reduction of Na/K ratios in DOCA-induced urine (normal rat)
1 |  | COC(=O)[C@@H]1CC2=CC(=O)CC[C@]2(C)[C@@]23O[C@@H]2C[C@@]2(C)[C@@H](CC[C@@]24CCC(=O)O4)[C@H]13 [eplerenone] | suppressed reduction of Na/K ratios in DOCA-induced urine in a dose-dependent manner
2 | 1.7 µM | COc1cc(NC(=O)c2ccc(-c3ccc(F)cc3F)c(CNCC(F)F)c2)ccc1S(N)(=O)=O [Example 414] | 
3 | 0.26 µM | COc1cc(C(=O)Nc2ccc(-c3ccccc3C(F)(F)F)c(Cn3nccn3)c2)ccc1S(N)(=O)=O [Example 407] | 
4 | < 10 µM | COc1cc(NC(=O)c2ccc(-c3cc(C)ccc3C(F)(F)F)c(CNCC(F)F)c2)ccc1S(N)(=O)=O [Example 443] | 
5 | 2 µM | CS(=O)(=O)c1ccc(NC(=O)c2ccc(-c3ccccc3OC(F)(F)F)c(CN3CCCC3)c2)cc1 [Example 160] | 
6 | < 10 µM | CS(=O)(=O)c1ccc(NC(=O)c2ccc(-c3ccccc3OC(F)(F)F)c(CNC[C@H]3CCCO3)c2)cc1 [Example 147] | 
7 | 0.65 µM | COc1ccc(-c2ccc(C(=O)Nc3ccc(S(N)(=O)=O)c(OC)c3)cc2CNCC(F)F)c(C(F)(F)F)c1 [Example 270] | 
8 | 0.12 µM | COc1cc(NC(=O)c2ccc(-c3ccccc3OC(F)(F)F)c(CNC3CC3)c2)ccc1S(N)(=O)=O [Example 288] | 
9 | 0.14 µM | COc1ccc(-c2ccc(C(=O)Nc3ccc(S(N)(=O)=O)c(OC)c3)cc2CO)c(C(F)(F)F)c1 [Example 128] | 
10 | 0.76 µM | CN(Cc1cc(C(=O)Nc2ccc(S(C)(=O)=O)cc2)ccc1-c1ccccc1OC(F)(F)F)C1CCCCC1 [Example 202] | 
11 | 0.82 µM | COc1cc(NC(=O)c2ccc(-c3ccccc3C(F)(F)F)c(CN3CCC3)c2)ccc1S(N)(=O)=O [Example 94] | 
12 | < 10 µM | COc1cc(C(=O)Nc2ccc(-c3ccccc3C(F)(F)F)c(CNCC(F)(F)F)c2)ccc1S(N)(=O)=O [Example 528] | 
13 | 0.12 µM | COc1cc(NC(=O)c2ccc(-c3ccccc3C(F)(F)F)c(CCl)c2)ccc1S(N)(=O)=O [Example 81] | 
14 | 0.022 µM | COc1cc(NC(=O)c2ccc(-c3ccccc3OC(F)(F)F)c(CN(C)C3CC3)c2)ccc1S(N)(=O)=O [Example 294] | 
15 | < 10 µM | COCc1cc(NC(=O)c2ccc(S(N)(=O)=O)c(OC)c2)ccc1-c1cccnc1C1CC1 [Example 545] | 
16 | 2.4 µM | COC(=O)c1cc(OC)ccc1-c1ccc(C(=O)Nc2ccc(S(N)(=O)=O)c(OC)c2)cc1 [Example 24] | 
17 | 0.26 µM | COc1cc(NC(=O)c2ccc(-c3ccccc3C(F)(F)F)c(CNC[C@H]3CCCO3)c2)ccc1S(N)(=O)=O [Example 91] | 
18 | < 10 µM | CS(=O)(=O)c1ccc(NC(=O)c2ccc(-c3ccccc3OC(F)(F)F)c(CN3CCCOCC3)c2)cc1 [Example 163] | 
